Assay results as given in patent US9409952B2, “Peptide-compound cyclization method” (Chugai Seiyaku Kabushiki Kaisha, priority 2011, dated 2016).
Starred links: 1 amine or outer side, 2 acyl side, 3 side chain; linkers in the order of their positions; H or OH if unused. Positions of bridges follow the written chain, without caps; N, C: chain ends. Non-standard residues stand in square brackets, D forms with d. Residues, ends and D or L forms follow the SMILES beside them. ξ: configuration not given here. *: point of attachment. NMeF = CN[C@@H](Cc1ccccc1)C(=O)O; NMeβAla = CN(CCC(=O)[*:2])[*:1]; NMeL = CN[C@@H](CC(C)C)C(=O)O; ξNMeF = CNC(Cc1ccccc1)C(=O)O; NMeV = CN[C@H](C(=O)O)C(C)C; NMeA = CN[C@@H](C)C(=O)O; Piperidide = C1CCN(*)CC1; dNMeA = CN[C@H](C)C(=O)O; Sar = CNCC(=O)O; tBu = CC(C)(C)*

What was measured:
[1] = PAMPA (parallel artificial membrane permeability assay); assay type: in vitro ADME; conditions: PAMPA; membrane permeation rate (Pe); 50 mM MOPSO buffer pH 6.5 with 5.0% glycocholic acid, 37° C., 18 hours; read-out: iPAMPA Pe
In short: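 Artificial membrane was 10% (w/v) egg lecithin plus 0.5% (w/v) cholesterol in dodecane on a PVDF filter. A 10 mM DMSO stock was added at 0.5% (v/v) to donor buffer (50 mM MOPSO, pH 6.5, 5.0% glycocholic acid). After 18 h at 37 °C, LC/MS or LC/UV gave donor and acceptor levels for Pe.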

[2] = Metabolic stability in human hepatic microsome; assay type: in vitro ADME; conditions: microsomes, pH 7.4; human hepatic microsome, NADPH(+); read-out: CL NADPH(+)

SMILES	Papp at 18 hours, 50 µM [1] [×10⁻⁶ cm/s]	microsomal CLint at 1 uM [2] [µL/min/mg]
CC(C)C[C@H]1C(=O)N[C@H](C(=O)N2CCCCC2)CC(=O)N(C)CC(=O)N[C@@H]([C@@H](C)O)C(=O)N(C)[C@@H](C)C(=O)N(C)[C@@H](Cc2ccccc2)C(=O)NCC(=O)N(C)[C@@H](Cc2ccccc2)C(=O)N(C)[C@@H](CC(C)C)C(=O)N(C)[C@@H](CC(C)C)C(=O)N1C [DP-175] ([Sar]T[NMeA][NMeF]G[NMeF][NMeL][NMeL][NMeL]D-Piperidide; lactam N-10)	48	94
CC(C)C[C@H]1C(=O)NCC(=O)N[C@H](C(=O)N2CCCCC2)CC(=O)N[C@H](C(C)C)C(=O)N[C@@H]([C@@H](C)O)C(=O)N(C)[C@@H](C)C(=O)N(C)[C@@H](Cc2ccccc2)C(=O)N(C)[C@@H](Cc2ccccc2)C(=O)N[C@@H](COC(C)(C)C)C(=O)N1C [DP-176] ([dV]T[NMeA][NMeF][NMeF]S(tBu)[NMeL]GD-Piperidide; lactam N-9)	25	47
CC(C)C[C@@H]1NC(=O)[C@H](CC(C)C)N(C)C(=O)[C@H](Cc2ccccc2)NC(=O)[C@H](C)NC(=O)[C@H](C(C)C)N(C)C(=O)CN(C)C(=O)[C@H]([C@@H](C)O)NC(=O)[C@H](C)N(C)C(=O)[C@H](CC(C)C)N(C)C(=O)[C@H](C)NC(=O)C[C@@H](C(=O)N(C)[C@@H](Cc2ccccc2)C(=O)N[C@@H](C)C(=O)N2CCCCC2)NC1=O [DP-177] (A[NMeL][NMeA]T[Sar][NMeV]AF[NMeL]LD[NMeF]A-Piperidide; lactam N-11)	23	27
CC(C)C[C@@H]1NC(=O)[C@H](CC(C)C)N(C)C(=O)[C@H](C)NC(=O)[C@H](C(C)C)N(C)C(=O)[C@H](Cc2ccccc2)NC(=O)CN(C)C(=O)[C@H]([C@@H](C)O)NC(=O)[C@H](C)N(C)C(=O)[C@H](CC(C)C)N(C)C(=O)[C@@H](C)NC(=O)C[C@@H](C(=O)N(C)[C@@H](Cc2ccccc2)C(=O)N[C@@H](C)C(=O)N2CCCCC2)NC1=O [DP-179] ([dA][NMeL][NMeA]T[Sar]F[NMeV]A[NMeL]LD[NMeF]A-Piperidide; lactam N-11)	17	13
CC[C@H](C)[C@@H]1NC(=O)[C@H](C)N(C)C(=O)[C@H](C)N(C)C(=O)[C@H]([C@@H](C)O)NC(=O)[C@H](CC(C)C)N(C)C(=O)[C@H](CC(C)C)NC(=O)[C@H](Cc2ccccc2)N(C)C(=O)[C@@H](C)NC(=O)C[C@@H](C(=O)N(C)[C@@H](Cc2ccccc2)C(=O)N[C@@H](C)C(=O)N2CCCCC2)NC(=O)[C@H](C(C)C)N(C)C(=O)[C@H](Cc2ccccc2)N(C)C1=O [DP-180] ([dA][NMeF]L[NMeL]T[NMeA][NMeA]I[NMeF][NMeV]D[NMeF]A-Piperidide; lactam N-11)	23	35
CC(C)C[C@@H]1NC(=O)[C@H](CC(C)C)N(C)C(=O)[C@H](C)N(C)C(=O)[C@H](Cc2ccccc2)NC(=O)[C@H](C(C)C)N(C)C(=O)CNC(=O)[C@H]([C@@H](C)O)NC(=O)[C@H](C)N(C)C(=O)[C@H](CC(C)C)N(C)C(=O)[C@H](C)N(C)C(=O)C[C@@H](C(=O)N(C)[C@@H](Cc2ccccc2)C(=O)N[C@@H](C)C(=O)N2CCCCC2)NC1=O [DP-181] ([NMeA][NMeL][NMeA]TG[NMeV]F[NMeA][NMeL]LD[NMeF]A-Piperidide; lactam N-11)	18	13
CC(C)C[C@@H]1NC(=O)[C@H](CC(C)C)N(C)C(=O)[C@@H]2CCCN2C(=O)[C@H](CC(C)C)N(C)C(=O)[C@H](Cc2ccccc2)NC(=O)CNC(=O)[C@H](CC(C)C)N(C)C(=O)[C@H](Cc2ccccc2)NC(=O)CCN(C)C(=O)C[C@@H](C(=O)N(C)[C@@H](Cc2ccccc2)C(=O)N[C@@H](C)C(=O)N2CCCCC2)NC(=O)[C@H]([C@@H](C)O)NC1=O [DP-182] ([NMeβAla]F[NMeL]GF[NMeL]P[NMeL]LTD[NMeF]A-Piperidide; lactam N-11)	26	9
CC[C@H](C)[C@@H]1NC(=O)[C@@H](C)N(C)C(=O)C[C@@H](C(=O)N(C)[C@@H](Cc2ccccc2)C(=O)N[C@@H](C)C(=O)N2CCCCC2)NC(=O)[C@H](Cc2ccccc2)N(C)C(=O)CN(C)C(=O)[C@H]([C@@H](C)O)NC(=O)[C@H](C)N(C)C(=O)[C@H](C(C)C)N(C)C(=O)[C@H](Cc2ccccc2)NC(=O)[C@H](CC(C)C)N(C)C(=O)[C@H](CC(C)C)N(C)C1=O [DP-183] ([dNMeA]I[NMeL][NMeL]F[NMeV][NMeA]T[Sar][NMeF]D[NMeF]A-Piperidide; lactam N-11)	29	25
CC(C)C[C@@H]1NC(=O)[C@H]([C@@H](C)O)NC(=O)[C@@H]2CCCN2C(=O)CNC(=O)[C@H](CC(C)C)N(C)C(=O)[C@H](Cc2ccccc2)NC(=O)[C@H](CC(C)C)N(C)C(=O)[C@H](CC(C)C)N(C)C(=O)[C@H](Cc2ccccc2)NC(=O)CN(C)C(=O)C[C@@H](C(=O)N(C)C(Cc2ccccc2)C(=O)N[C@@H](C)C(=O)N2CCCCC2)NC1=O (stereo partly shown) [DP-185] ([Sar]F[NMeL][NMeL]F[NMeL]GPTLD[ξNMeF]A-Piperidide; lactam N-11)	46	19
CC(C)C[C@H]1C(=O)N(C)[C@@H](C(C)C)C(=O)N[C@@H](C(C)C)C(=O)N[C@H](C(=O)N(C)[C@@H](Cc2ccccc2)C(=O)N[C@@H](C)C(=O)N2CCCCC2)CC(=O)N[C@@H](C)C(=O)N[C@@H](Cc2ccccc2)C(=O)N(C)[C@@H](CC(C)C)C(=O)N[C@@H]([C@@H](C)O)C(=O)N(C)[C@@H](Cc2ccccc2)C(=O)NCC(=O)N1C [DP-187] (AF[NMeL]T[NMeF]G[NMeL][NMeV]VD[NMeF]A-Piperidide; lactam N-10)	43	22
CC(C)C[C@H]1C(=O)N(C)[C@@H](CC(C)C)C(=O)N[C@H](C(=O)N(C)[C@@H](Cc2ccccc2)C(=O)N[C@@H](C)C(=O)N2CCCCC2)CC(=O)N[C@@H](C)C(=O)N(C)[C@@H](C)C(=O)N(C)[C@@H](Cc2ccccc2)C(=O)N(C)[C@@H](CC(C)C)C(=O)N[C@@H]([C@@H](C)O)C(=O)N(C)CC(=O)N[C@@H](C(C)C)C(=O)N1C [DP-188] (A[NMeA][NMeF][NMeL]T[Sar]V[NMeL][NMeL]D[NMeF]A-Piperidide; lactam N-10)	28	84
CC[C@H](C)[C@@H]1NC(=O)[C@H](Cc2ccccc2)N(C)C(=O)[C@H]([C@@H](C)O)NC(=O)[C@@H](C)NC(=O)C[C@@H](C(=O)N(C)[C@@H](Cc2ccccc2)C(=O)N[C@@H](C)C(=O)N2CCCCC2)NC(=O)[C@H](CC(C)C)N(C)C(=O)[C@H](CC(C)C)N(C)C(=O)[C@H](Cc2ccccc2)N(C)C(=O)[C@H](CC(C)C)N(C)C(=O)[C@H](C)N(C)C1=O [DP-189] ([dA]T[NMeF]I[NMeA][NMeL][NMeF][NMeL][NMeL]D[NMeF]A-Piperidide; lactam N-10)	1.4	3
CC[C@H](C)[C@@H]1NC(=O)[C@H](C)N(C)C(=O)[C@H](CC(C)C)N(C)C(=O)[C@@H](C(C)C)NC(=O)C[C@@H](C(=O)N(C)[C@@H](Cc2ccccc2)C(=O)N[C@@H](C)C(=O)N2CCCCC2)NC(=O)[C@H]([C@@H](C)O)NC(=O)[C@H](CC(C)C)N(C)C(=O)[C@H](Cc2ccccc2)N(C)C(=O)[C@H](CC(C)C)N(C)C(=O)[C@H](Cc2ccccc2)N(C)C1=O [DP-190] ([dV][NMeL][NMeA]I[NMeF][NMeL][NMeF][NMeL]TD[NMeF]A-Piperidide; lactam N-10)	0.6	3
CC(C)C[C@H]1C(=O)N(C)[C@@H](Cc2ccccc2)C(=O)N(C)[C@@H](C(C)C)C(=O)N[C@@H](Cc2ccccc2)C(=O)N[C@H](C(=O)N(C)[C@@H](Cc2ccccc2)C(=O)N[C@@H](C)C(=O)N2CCCCC2)CC(=O)N(C)[C@@H](C)C(=O)N[C@@H](C(C)C)C(=O)N(C)[C@@H](CC(C)C)C(=O)N[C@@H]([C@@H](C)O)C(=O)NCC(=O)N1C [DP-191] ([NMeA]V[NMeL]TG[NMeL][NMeF][NMeV]FD[NMeF]A-Piperidide; lactam N-10)	34	46
CC(C)C[C@H]1C(=O)N[C@@H]([C@@H](C)O)C(=O)N(C)[C@@H](Cc2ccccc2)C(=O)N(C)[C@@H](CC(C)C)C(=O)NCC(=O)N(C)[C@@H](C(C)C)C(=O)N[C@@H](Cc2ccccc2)C(=O)N[C@H](C(=O)N(C)[C@@H](Cc2ccccc2)C(=O)N[C@@H](C)C(=O)N2CCCCC2)CC(=O)N(C)CCC(=O)N[C@@H](C(C)C)C(=O)N1C [DP-193] ([NMeβAla]V[NMeL]T[NMeF][NMeL]G[NMeV]FD[NMeF]A-Piperidide; lactam N-10)	53	124
CC(C)C[C@H]1C(=O)N(C)[C@@H](CC(C)C)C(=O)N[C@H](C(=O)N(C)[C@@H](Cc2ccccc2)C(=O)N[C@@H](C)C(=O)N2CCCCC2)CC(=O)N(C)CCC(=O)N(C)[C@@H](C)C(=O)N(C)[C@@H](CC(C)C)C(=O)N[C@@H]([C@@H](C)O)C(=O)N(C)[C@@H](Cc2ccccc2)C(=O)N[C@@H](C(C)C)C(=O)N(C)CC(=O)N1C [DP-194] ([NMeβAla][NMeA][NMeL]T[NMeF]V[Sar][NMeL][NMeL]D[NMeF]A-Piperidide; lactam N-10)	22	72
CC[C@H](C)[C@@H]1NC(=O)[C@H](C)N(C)C(=O)[C@H]([C@@H](C)O)NC(=O)[C@H](C)N(C)C(=O)[C@H](C(C)C)N(C)C(=O)[C@H](Cc2ccccc2)NC(=O)CN(C)C(=O)C[C@@H](C(=O)N(C)[C@@H](Cc2ccccc2)C(=O)N[C@@H](C)C(=O)N2CCCCC2)NC(=O)[C@H](C)N(C)C(=O)[C@H](CC(C)C)N(C)C1=O [DP-195] ([Sar]F[NMeV][NMeA]T[NMeA]I[NMeL][NMeA]D[NMeF]A-Piperidide; lactam N-10)	8	52
